According to ChEMBL document CHEMBL4732143 (Eur J Med Chem, 2021):

Key:
[1] = target: T1, Sphingosine kinase 2 (Homo sapiens) (UniProt Q9NRA0); assay: Inhibition of recombinant human Sphk2 expressed in baculovirus infected Sf9 insect cells assessed as residual activity at 0.3 uM using d-erythro-sphingosine as substrate measured after 20 mins in presence of [gamma-32P]ATP by liquid scintillation counting analysis relative to control
T1 sequence (whole entry): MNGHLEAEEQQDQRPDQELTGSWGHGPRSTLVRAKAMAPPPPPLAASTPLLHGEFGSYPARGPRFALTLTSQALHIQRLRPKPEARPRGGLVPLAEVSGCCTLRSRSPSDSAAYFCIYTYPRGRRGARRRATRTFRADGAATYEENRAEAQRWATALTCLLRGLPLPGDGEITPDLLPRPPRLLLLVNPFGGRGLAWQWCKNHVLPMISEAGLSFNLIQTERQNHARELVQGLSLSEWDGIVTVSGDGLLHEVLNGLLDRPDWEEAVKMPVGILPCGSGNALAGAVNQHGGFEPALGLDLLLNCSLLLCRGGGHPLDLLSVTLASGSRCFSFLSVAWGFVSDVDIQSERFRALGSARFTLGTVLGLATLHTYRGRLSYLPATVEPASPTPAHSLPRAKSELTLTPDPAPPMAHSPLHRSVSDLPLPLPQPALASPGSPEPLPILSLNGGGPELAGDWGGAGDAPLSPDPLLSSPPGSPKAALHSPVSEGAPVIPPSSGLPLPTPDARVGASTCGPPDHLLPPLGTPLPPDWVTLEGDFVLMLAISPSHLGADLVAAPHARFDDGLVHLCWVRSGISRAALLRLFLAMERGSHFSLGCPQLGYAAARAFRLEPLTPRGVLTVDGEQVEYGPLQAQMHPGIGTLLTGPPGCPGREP

[2] = target: T2, Sphingosine kinase 2 (Homo sapiens, UniProt Q9NRA0); assay: Inhibition of recombinant human Sphk2 expressed in baculovirus infected Sf9 insect cells using d-erythro-sphingosine as substrate measured after 20 mins in presence of [gamma-32P]ATP by liquid scintillation counting analysis
T2 sequence (Q9NRA0 whole entry): T1 sequence (whole entry)

[3] = target: T1, Sphingosine kinase 2 (Homo sapiens); assay: Inhibition of Sphk2 in human U-937 cells using FTY720 as substrate measured after 2 hrs by LC-MS analysis; assay type: cell-based; conditions: dose 0.1-1 µM
[4] = target: T1, Sphingosine kinase 2 (Homo sapiens); assay: Inhibition of recombinant human Sphk2 expressed in yeast strain KYA1 assessed as increase in yeast growth measured after 24 hrs

Row | SMILES | Activity [1] | other results
1 | CCCCCCCn1cc(-c2noc([C@@H]3CCCN3C(=N)N)n2)c2ccccc21 | 96% | 
2 | CCCCCCCCCCCCn1cc(-c2noc([C@@H]3CCCN3C(=N)N)n2)c2ccccc21 | 46% | Ki [2]: 290 nM
3 | CCCCCCCCCCn1cc(-c2noc([C@@H]3CCCN3C(=N)N)n2)c2ccccc21 | 47% | Ki [2]: 300 nM
4 | CCCCCCCCCCn1ccc2c(-c3noc([C@@H]4CCCN4C(=N)N)n3)cccc21 | 64% | 
5 | CCCCCCCCCn1cc(-c2noc(C[C@@H]3CCCN3C(=N)N)n2)c2ccccc21 | 98% | 
6 | CCCCCCCCn1ccc2c(-c3noc([C@@H]4CCCN4C(=N)N)n3)cccc21 | 84% | 
7 | CCCCCCCCCCCn1cc(-c2noc([C@@H]3CCCN3C(=N)N)n2)c2ccccc21 | 79% | 
8 | CCCCCCCCCn1ccc2ccc(-c3noc([C@@H]4CCCN4C(=N)N)n3)cc21 | 79% | 
9 | CCCCOc1ccc2cc(-c3noc([C@@H]4CCCN4C(=N)N)n3)ccc2c1 | 95% | Ki [2]: 980 nM
10 | CCCCCCCCCCn1ccc2ccc(-c3noc([C@@H]4CCCN4C(=N)N)n3)cc21 | 68% | 
11 | CCCCCCCCCn1ccc2c(-c3noc([C@@H]4CCCN4C(=N)N)n3)cccc21 | 68% | 
12 | CCCCCCCCn1cc(-c2noc([C@@H]3CCCN3C(=N)N)n2)c2ccccc21 | 73% | 
13 | CCCCCCCCCn1cc(-c2noc([C@@H]3CCCN3C(=N)N)n2)c2ccccc21 | 59% | 
14 | CCCCCCCn1ccc2c(-c3noc([C@@H]4CCCN4C(=N)N)n3)cccc21 | 89% | 

Now from value to molecule, other results behind:

Row | Activity [1] | SMILES | other results
15 | 93% | CCCCCCCn1ccc2cc(-c3noc([C@@H]4CCCN4C(=N)N)n3)ccc21 | 
16 | 25% | CCCCCCCCCn1ccc2cc(-c3noc([C@@H]4CCCN4C(=N)N)n3)ccc21 | Ki [2]: 90 nM; inhibition [3]: Dose-dependent effect; inhibition [4]: Dose-dependent effect
17 | 72% | CCCCCCn1ccc2cc(-c3noc([C@@H]4CCCN4C(=N)N)n3)ccc21 | 
18 | 87% | CCCCCCCCn1ccc2cc(-c3noc([C@@H]4CCCN4C(=N)N)n3)ccc21 | 
19 | 103% | CCCCCCCn1ccc2ccc(-c3noc([C@@H]4CCCN4C(=N)N)n3)cc21 | 
20 | 31% | CCCCCCCCCCn1ccc2cc(-c3noc([C@@H]4CCCN4C(=N)N)n3)ccc21 | Ki [2]: 120 nM
21 | 93% | CCCCCCCCn1ccc2ccc(-c3noc([C@@H]4CCCN4C(=N)N)n3)cc21 | 
